These results are taken from ChEMBL document CHEMBL1128893, “Synthesis and characterization of N-(acenaphth-5-yl)-N'-(4-methoxynaphth-1-yl)guanidine as a glutamate release inhibitor and potential anti-ischemic agent” (Bioorg Med Chem Lett, 1995).

Molecules are shown by their SMILES.

The nature of assay [1]: Inhibition of 45 [Ca2+] flux into rat brain synaptosomes depolarized by elevated potassium concentrations. Format: functional, subcellular.
A further assay is filed under the species Rattus norvegicus. The assay can be described thus: Compound was evaluated for the inhibition of K+ -evoked glutamate release through block of voltage-gated [Ca2+] -channels, in the rat brain synaptosomal preparations. The assay is classed as functional, organism-based.
The target in assay [2] is T1, Sodium channel protein type 2 subunit alpha (Homo sapiens, UniProt Q99250). Description: (§1) Blockade of synaptosomal sodium channels, inhibition of [14C]guanidinium ion flux into CHO cells expressing Type II sodium channel. The assay is classed as functional, cell-based.
T1 sequence (Q99250 whole entry): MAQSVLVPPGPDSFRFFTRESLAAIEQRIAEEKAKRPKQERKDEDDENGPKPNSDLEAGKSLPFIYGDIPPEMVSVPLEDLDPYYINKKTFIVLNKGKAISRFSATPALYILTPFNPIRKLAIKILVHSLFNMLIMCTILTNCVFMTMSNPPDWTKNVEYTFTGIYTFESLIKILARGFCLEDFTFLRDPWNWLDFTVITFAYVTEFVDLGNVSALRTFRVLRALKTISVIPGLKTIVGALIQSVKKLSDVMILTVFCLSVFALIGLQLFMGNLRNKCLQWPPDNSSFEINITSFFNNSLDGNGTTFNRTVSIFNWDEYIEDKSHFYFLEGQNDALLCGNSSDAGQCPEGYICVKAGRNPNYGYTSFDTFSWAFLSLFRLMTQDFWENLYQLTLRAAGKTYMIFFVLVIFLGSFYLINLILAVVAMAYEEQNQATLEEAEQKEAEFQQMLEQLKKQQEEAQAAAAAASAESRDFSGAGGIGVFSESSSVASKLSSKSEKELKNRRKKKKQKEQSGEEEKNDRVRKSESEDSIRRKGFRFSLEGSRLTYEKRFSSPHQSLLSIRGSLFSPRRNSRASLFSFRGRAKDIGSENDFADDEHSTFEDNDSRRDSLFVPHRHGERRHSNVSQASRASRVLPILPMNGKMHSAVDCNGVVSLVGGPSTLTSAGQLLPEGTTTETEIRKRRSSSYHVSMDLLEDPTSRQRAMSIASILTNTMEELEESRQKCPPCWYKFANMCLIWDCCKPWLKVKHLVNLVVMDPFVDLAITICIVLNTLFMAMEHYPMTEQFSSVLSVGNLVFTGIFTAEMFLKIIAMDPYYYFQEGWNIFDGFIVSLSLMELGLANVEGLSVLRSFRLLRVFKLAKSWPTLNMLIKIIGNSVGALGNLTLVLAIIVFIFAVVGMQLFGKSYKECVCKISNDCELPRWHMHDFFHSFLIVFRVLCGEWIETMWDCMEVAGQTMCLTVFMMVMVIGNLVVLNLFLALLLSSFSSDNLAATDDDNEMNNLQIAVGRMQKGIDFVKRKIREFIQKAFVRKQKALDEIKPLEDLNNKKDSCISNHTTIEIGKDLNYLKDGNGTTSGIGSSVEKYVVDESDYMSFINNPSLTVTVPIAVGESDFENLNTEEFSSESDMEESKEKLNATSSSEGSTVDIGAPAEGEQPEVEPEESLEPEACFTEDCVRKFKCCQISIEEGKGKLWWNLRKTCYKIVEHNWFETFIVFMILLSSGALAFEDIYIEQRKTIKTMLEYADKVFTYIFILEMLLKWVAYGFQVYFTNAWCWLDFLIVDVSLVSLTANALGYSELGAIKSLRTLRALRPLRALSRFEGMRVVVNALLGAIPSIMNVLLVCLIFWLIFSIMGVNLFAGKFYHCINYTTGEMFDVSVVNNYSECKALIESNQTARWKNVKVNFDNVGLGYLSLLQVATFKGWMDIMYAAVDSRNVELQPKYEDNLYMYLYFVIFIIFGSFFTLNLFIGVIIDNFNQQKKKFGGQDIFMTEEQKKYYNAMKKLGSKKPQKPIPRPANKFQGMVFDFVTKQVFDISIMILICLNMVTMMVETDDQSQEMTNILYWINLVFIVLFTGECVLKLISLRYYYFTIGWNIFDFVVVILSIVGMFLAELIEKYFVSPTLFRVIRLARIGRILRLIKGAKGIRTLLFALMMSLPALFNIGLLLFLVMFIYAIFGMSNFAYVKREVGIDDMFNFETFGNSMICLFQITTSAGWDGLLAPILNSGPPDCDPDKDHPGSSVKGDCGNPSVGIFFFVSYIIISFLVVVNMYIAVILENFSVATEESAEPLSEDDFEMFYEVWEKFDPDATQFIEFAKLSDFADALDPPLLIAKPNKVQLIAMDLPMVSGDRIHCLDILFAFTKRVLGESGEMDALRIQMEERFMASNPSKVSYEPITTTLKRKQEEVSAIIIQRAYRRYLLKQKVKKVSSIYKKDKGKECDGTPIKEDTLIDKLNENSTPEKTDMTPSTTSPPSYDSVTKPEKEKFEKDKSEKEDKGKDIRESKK
Assay [3] deals with Sodium channel alpha subunits; brain (Types I, II, III) (Rattus norvegicus) (UniProt P04775+P04774+P08104). The note with it: at 3 µM.
Description: Inhibition of veratridine-induced glutamate release, blockade of rat brain synaptosome voltage-gated sodium channels at 3 uM
Assay [4] deals with T1, Sodium channel protein type 2 subunit alpha. The assay is described as §1.

Take `COc1ccc(/N=C(\N)Nc2ccc3c4c(cccc24)CC3)c2ccccc12`: the IC50 (usually the concentration that inhibits the measured activity by half) came out at 2240 nM in assay [1], 1000 nM in the assay listed under Rattus norvegicus and 1310 nM in assay [2]. In assay [3], this compound yielded a Block of 87%.
With `CN1CCN(c2ncc(-c3cc(Cl)cc(Cl)c3Cl)c(N)n2)CC1` [SIPATRIGINE], in assay [4], the IC50 worked out at 2550 nM.
With `Nc1nc2ccc(OC(F)(F)F)cc2s1` [RILUZOLE], the IC50 was more than 30000 nM in assay [1] and 2200 nM in assay [2]. This compound displayed a Block in assay [3] of 49%.
As for `N=C(Nc1ccc2c3c(cccc13)CC2)Nc1ccc2c3c(cccc13)CC2`, the IC50 in assay [1] is 1130 nM; in the assay listed under Rattus norvegicus, 800 nM; in assay [2], 2030 nM.
